How the values were obtained:
[1] = tested on: KP and KP^M cells; experiment: Cleaved caspase 3 (CC3) immunoblot in lung adenocarcinoma cells; type: cell-based, mouse; settings: 5 nM bortezomib, 24 hours, KP and KP^M cells
Protocol: FIG. 1. Bortezomib inhibits NF-κB signaling and induces apoptosis in murine lung adenocarcinoma cell lines. (1A) reduction of nuclear p65 level by bortezomib. Two KP (KrasLSL-G12D/wt;p53flox/flox) cell lines (KP1 and KP2) were treated with 5 nM bortezomib (BZ) or vehicle control (ctrl) for 24 hours. Nuclear (N) and cytoplasmic (C) fractions of protein lysates were immunoblotted with the indicated antibodies. NEMO and Parp serve as cytoplasmic and nuclear loading controls, respectively. (1B) quantitative PCR analysis of a subset of NF-κB target genes in 5 nM bortezomib (BZ)-treated KP cells at the indicated time points. Vehicle control is set to 1. (1C) apoptosis in KP and KP^M (KrasLSL-G12D/wt;p53R127H/−) cells induced by bortezomib. Cells were pre-treated with 5 nM bortezomib for 24 hours, and protein lysates were immunoblotted with CC3 and tubulin antibodies. (1D) quantification of cell death in bortezomib-treated cells. Cells were treated with the indicated concentrations of bortezomib for 24 hours, and dead cells were quantified by Trypan blue staining. Error bars are SD (n=3).
FIG. 17: Bay-117082 induces cell death In KP cells. […] (17B) Bay-117082 induces apoptosis in KP cells. Cells were treated with 10IJM Bay-117082 for 48 hours. Protein lysates were immunoblotted with cleaved caspase 3 (CC3) and Tubulin antibodies.
Cell pellets were lysed in Laemmli buffer. […]

[2] = tested on: KP and KP^M cell lines; experiment: Cell viability assay (Cell Titer Aqueous Kit); type: cell-based, mouse; settings: increasing doses, 24 hours, KP and KP^M vs 3TZ and LKR13 cells
Protocol: FIG. 2: Bortezomib sensitivity correlates with basal NF-κB activity in KP lung adenocarcinoma cell lines. […] 3TZ, diamond; LKR13, triangle; KP, solid lines; KPM, dashed lines. Error bars are SD (n=3). (2B) lung cancer cell lines with high basal NF-κB activity were sensitive to bortezomib. NF-κB p65 DNA-binding activity was determined by ELISA from nuclear extracts of KP cell lines and LKR13 cells (set as 1). Relative viability was measured after 5 nM bortezomib treatment, as in 2A. FIG. 17: Bay-117082 induces cell death In KP cells. […] (17B) Bay-117082 induces apoptosis in KP cells. Cells were treated with 10IJM Bay-117082 for 48 hours. […] Cell culture conditions were as described recently (30).

[3] = tested on: KrasLSL-G12D/wt mice; experiment: Kaplan-Meier survival of K mice; type: in vivo, mouse; settings: KrasLSL-G12D/wt cohort, weekly 1 mg/kg bortezomib; P=0.36
Protocol: (5A and 5B) Kaplan-Meier survival curve of vehicle control and bortezomib-treated KP (5A) and K (5B) mice. Arrows indicate weekly 1 mg/kg bortezomib regimen.
To initiate lung tumors, cohorts of K or KP mice of 129svJae background were infected with 2.5×10^7 plaque-forming units of Adeno-Cre (University of Iowa) by intranasal inhalation, as described previously (2, 28). Mice were given bortezomib (LC Labs) in PBS [0.5% dimethylsulfoxide (DMSO)] at 1 mg/kg body weight i.v., as indicated. Bay-117082 (CalBiochem) was dissolved in DMSO, diluted in PBS as a fine suspension, and injected at 10 mg/kg body weight i.p., as indicated.
Using a cohort of KP mice, we treated tumor-bearing animals 8 weeks after Adeno-Cre infection with bortezomib once a week for 4 weeks (FIG. 10A).

[4] = human, in vivo; cited from earlier work
[5] = tested on: KP lung cancer cells in NCR nu/nu mice; experiment: Subcutaneous tumor model, caliper tumor volume; settings: KP cells s.c. in immunocompromised mice
Protocol: 1×10^6 KP lung cancer cells were injected subcutaneously into NCR nu/nu mice. Tumor volume was quantified by caliper measurements. Treatments started when tumors reached −100 mm^3 (set to 1 in tumor volume axis and 0 days in time axis). Arrows indicate Bortezomib (1 mg/kg) or Cisplatin (7 mg/kg) injections. Error bars are s.d (n=4).
To compare the efficacy of bortezomib to that of other lung cancer therapies, we injected KP lung tumor cells s.c. into immunocompromised mice, allowed tumors to form, and then treated the mice with bortezomib.

CC(C)C[C@H](NC(=O)[C@H](Cc1ccccc1)NC(=O)c1cnccn1)B(O)O [bortezomib, N-(2-pyrazine) carbonyl-L-phenylalanine-L-leucine boronic acid]
cleaved caspase 3 (CC3) [1]: increased cleaved caspase 3 | sensitivity in cell viability dose-response [2]: higher sensitivity | survival [3]: no improvement in survival | side effects in the clinic [4]: manageable side effects | tumor volume, short term ([5]; Bortezomib 1 mg/kg): markedly reduced tumor volumes | tumor progression ([5]; Bortezomib 1 mg/kg or Cisplatin 7 mg/kg): diminished tumor progression to a similar extent as cisplatin
